Measurements: ChEMBL document CHEMBL3734655, “Identification of camphor derivatives as novel M2 ion channel inhibitors of influenza A virus” (Medchemcomm, 2015)
pIC50: −log10 of the molar value. Active and inactive are the calls of the source. The calls are words filed in the database; no cut-off is given here.

What was measured:
[1] = Cytotoxicity against MDCK cells incubated for 72 hrs by CCK-8 assay; assay type: cell-based, Canis lupus familiaris; conditions: dog
[2] = tested on: Influenza A virus H3N2; assay: Antiviral activity against wild type M2 ion channel expressing Influenza A virus (A/Hong Kong/1968(H3N2)) infected in MDCK cells preincubated for 30 mins followed by viral infection measured after 72 hrs by CCK-8 assay; assay type: functional, organism-based; conditions: A/Hong Kong/1968, MDCK
[3] = tested on: Influenza A virus H3N2; assay: Potency index, ratio of amantadine IC50 to compound IC50 for wild type M2 ion channel expressing Influenza A virus (A/Hong Kong/1968(H3N2)) infected in MDCK cells; assay type: functional
[4] = tested on: Influenza A virus H3N2; assay: Antiviral activity against wild type Influenza A virus (A/Hong Kong/1968(H3N2)) infected in MDCK cells assessed as reduction in size and number of plaque at 1 uM after 2 to 3 days by crystal violet staining based assay; assay type: functional, organism-based
[5] = tested on: Influenza A virus H3N2; assay: Antiviral activity against wild type Influenza A virus (A/Hong Kong/1968(H3N2)) infected in MDCK cells assessed as reduction in size and number of plaque at 0.2 uM after 2 to 3 days by crystal violet staining based assay; assay type: functional, organism-based

Row | SMILES | MCC at 72 h [1] | pIC50 [2] | Ratio IC50 [3] | Activity [4] | Activity [5]
1 | CC1(C)[C@@H]2CC[C@@]1(C)[C@@H](N)C2 (relative stereo) | > 300 µM | 6.31 |  |  | 
2 | C[C@@H](N)[C@H]1C[C@H]2CC[C@]1(C)C2(C)C.Cl | > 300 µM | 7.00 | 5 | Active | Active
3 | CC1(C)[C@H]2CC[C@](C)(C2)[C@H]1CN | > 300 µM | 4.80 |  |  | 
4 | C[C@H]1[C@H](N)C[C@@H]2C[C@H]1C2(C)C | > 300 µM | 6.92 |  |  | 
5 | N[C@H]1C[C@@H]2CC[C@H]1C2 | > 300 µM | 4.91 |  |  | 
6 | C[C@H]1[C@H]([C@H](C)N)C[C@@H]2C[C@H]1C2(C)C | > 300 µM | 5.71 |  |  | 
7 | CC1(C)[C@@H]2CC[C@@]1(C)[C@@H](CN)C2 | > 300 µM | 6.54 |  |  | 
8 | NC1CC2CCC1C2 (configuration not stated) | > 300 µM | 4.76 |  |  | 
9 | C[C@H]1[C@H](CN)C[C@@H]2C[C@H]1C2(C)C | > 300 µM | 5.61 |  |  | 
10 | NC12CC3CC(CC(C3)C1)C2 [AMANTADINE] |  | 6.30 |  |  | 
